{"source": "patent US7465715B2", "about": "“Method for treatment of multiple sclerosis” (Can-Fite Biopharma, Ltd., priority 2003, dated 2008)", "key": {"A1 receptor": {"target": "T1, A1 receptor (Rattus norvegicus, UniProt P25099)", "T1 sequence (P25099 1-326)": "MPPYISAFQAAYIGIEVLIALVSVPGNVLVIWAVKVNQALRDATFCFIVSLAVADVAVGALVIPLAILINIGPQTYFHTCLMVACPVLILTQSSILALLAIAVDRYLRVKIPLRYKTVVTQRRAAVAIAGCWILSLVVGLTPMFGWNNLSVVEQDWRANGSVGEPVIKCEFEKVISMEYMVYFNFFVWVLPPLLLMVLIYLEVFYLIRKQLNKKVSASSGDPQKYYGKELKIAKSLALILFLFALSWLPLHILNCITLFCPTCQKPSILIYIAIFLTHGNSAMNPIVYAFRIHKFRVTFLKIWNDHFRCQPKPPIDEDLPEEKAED", "details": "cited from earlier work"}, "multiple sclerosis": {"system": "multiple sclerosis", "details": "patients having MS; cited from earlier work"}, "EAE": {"system": "EAE", "assay": "Experimental autoimmune encephalomyelitis (EAE) induced with MBP in Lewis rats, clinical score", "format": "in vivo, female Lewis rats"}}, "data": [{"smiles": "Nc1nc(Cl)nc2c1ncn2[C@H]1C[C@H](O)[C@@H](CO)O1", "note": "[CdA, 2-chloro-2′-deoxyadenosine]", "values": [{"measurement": "functional character at A1 receptors", "setting": "A1 receptor", "value": "putative partial agonist"}, {"measurement": "effect on the disease condition of MS patients", "setting": "multiple sclerosis", "value": "markedly ameliorate the disease condition"}]}, {"smiles": "CNC(=O)[C@H]1O[C@@H](n2cnc3c(NCc4cccc(I)c4)ncnc32)[C@H](O)[C@@H]1O", "note": "[CF101, N^6-(3-iodobenzyl)-adenosine-5′-N-methyluronamide]", "values": [{"measurement": "difference in the maximal clinical score between treated and control groups", "setting": "EAE; 10 μg/kg PO BID from day 7, P<0.01, Student's t test", "value": "significant"}, {"measurement": "severity of the disease in the treated group", "setting": "EAE; 10 μg/kg PO BID from day 7 after disease induction", "value": "significantly reduced"}, {"measurement": "clinical score in comparison to the control group", "setting": "EAE; 10 μg/kg PO BID from day 7 after disease induction, score 0-5", "value": "remarkably low clinical score"}]}]}
